Experimental data: patent US10654843B2, “LMP7 inhibitors” (PRINCIPIA BIOPHARMA INC., priority 2014, dated 2020)
Where two headings read alike, the source gives them in different places.

Legend:
[1] = target: immunoproteasome (LMP7/B5i) (Homo sapiens, UniProt P20618+P28062); experiment: Caliper-based proteasome assay, immunoproteasome chymotrypsin-like activity; type: biochemical; conditions: human recombinant immunoproteasome 0.3 nM, FAM-labeled peptide substrate 1 μM, room temperature 3 h
Method: (§1) A Caliper-based proteasome assay (Caliper Life Sciences, Hopkinton, Mass.) was used to measure inhibition of the chymotrypsin-like activity of both immunoproteasome (LMP7/B5i) and the constitutive proteasome (B5c) for a compound of Formula (I). Serial dilutions of test compounds were incubated with either human recombinant immunoproteasome or constitutive proteasome (0.3 nM enzyme) and a carboxyfluorescein (FAM)-labeled peptide substrate FAM-TYETFKSIMKKSPF-NH2 (1 μM) at room temperature for 3 h. The reaction buffer was 20 mM Hepes pH 7.4, 0.01% bovine serum albumin, 0.015% SDS, 0.5 mM EDTA, 1% DMSO. The reaction was then terminated with a buffer containing the known proteasome inhibitor carfilzomib at a concentration of 5 uM. The peptide cleavage reaction product was quantified on a Caliper LabChip 3000. Percent inhibition was calculated for each compound dilution and the concentration that produced 50% inhibition was calculated. This value is presented as the IC50.

[2] = target: constitutive proteasome (B5c) (Homo sapiens, UniProt P20618+P28074); experiment: Caliper-based proteasome assay, constitutive proteasome chymotrypsin-like activity; type: biochemical; conditions: human recombinant constitutive proteasome 0.3 nM, FAM-labeled peptide substrate 1 μM, room temperature 3 h
Method: as §1

[3] = target: T1, proteasome activity in HT-29 cells (enriched in constitutive proteasome) (Homo sapiens, UniProt P28074); experiment: Inhibition of proteasome activity in cells (Proteasome-Glo), HT-29; type: cell-based; conditions: 2 hr incubation, Suc-LLVY-aminoluciferin, read-out: HT29 IC50
T1 construct: endogenous in cells; host or cells: HT-29
Method: (§2) The cell-based effects of the compound of the present disclosure on immunoproteasome were determined by measuring inhibition of proteasome activity in cells using the Proteasome-Glo™ Cell-Based Reagent (Promega, Madison Wis). The Proteasome-Glo™ assay contains a specific luminogenic proteasome substrate in a buffer optimized for cell permeabilization, proteasome activity, and luciferase activity. For the chymotrypsin-like activity, the peptide substrate is Suc-LLVY-aminoluciferin (Succinyl-leucine-leucine-valine-tyrosine-aminoluciferin). Cleavage of the substrate by proteasome results in luminescent signal which is proportional to the proteasome activity. The cell line THP-1 (a monocytic leukemia cell line enriched in immunoproteasome), the cell line HT-29 (a colorectal adenocarcinoma cell line enriched in constitutive proteasome), and primary human peripheral blood mononuclear cells (PBMC) were used to assess proteasome activity. Cells were seeded in a 96-well plate at 10,000 cells per well in RPMI 1640 high glucose medium with 10% fetal bovine serum (FBS). Compound dilutions were added to cells starting at a concentration of 5 uM and decreasing in tripling dilutions. The final DMSO concentration was 1%. The concentration range was adjusted as needed for compounds of different potencies. The cells treated with compounds were incubated for 2 hr at 37° C. in 5% CO2. At the end of the 2 hour incubation period, cells were transferred to white 384 well assay plates. 20 uL of Proteasome-Glo™ Reagent was added to each well and incubated for 10 minutes at room temperature. The plate was read in the Analyst HT instrument (Molecular Devices, Sunnyvale, Calif.) using luminescence mode. The percent inhibition of activity was plotted as a function of log compound concentration. The IC50 was then calculated for each compound using Prism software from GraphPad Software Inc. (San Diego, Calif).

[4] = target: T2, proteasome activity in primary human peripheral blood mononuclear cells (PBMC) (Homo sapiens, UniProt P28062); experiment: Inhibition of proteasome activity in cells (Proteasome-Glo), PBMC; type: cell-based; conditions: 2 hr incubation, Suc-LLVY-aminoluciferin
T2 construct: endogenous in cells; host or cells: primary human PBMC
Method: as §2

[5] = target: T3, proteasome activity in HT-29 cells (Homo sapiens, UniProt P28074); experiment: Durability of binding in cells, wash-out assay (Proteasome-Glo), HT-29; type: cell-based; conditions: 2 hours incubation, washout
T3 construct: endogenous in cells; host or cells: HT-29
Method: The durability of binding of proteasome inhibitors was assessed in cells using wash-out assays and the Proteasome-Glo™ Reagent kit. THP-1 cells, HT-29 cells, or PBMC were incubated with an 8-fold dilution series of inhibitor for 2 hours. Following 2 hours of incubation, cells were washed using 3 occasions of centrifugation followed by resuspension in culture medium. Following inhibitor washout, cells were returned to culture for either 30 minutes, 4 hours, or 18 hours. Cells were then transferred to white 384 plates, and 20 uL of Proteasome-Glo™ Reagent was added to each well for 10 minutes. Plates were then read on an Analyst HT plate reader using luminescence mode. The percent inhibition of activity was plotted as a function of log compound concentration. The IC50 was then calculated for each compound using Prism software from GraphPad.

immunoproteasome (LMP7) = immunoproteasome (LMP7) (Homo sapiens, UniProt P20618+P28062); experiment: Recovery of enzymatic activity upon dialysis; type: biochemical; conditions: FIG. 1, dialysis
Description: The dialysis assay was done to determine if a compound binds reversibly or irreversibly to immunoproteasome thereby resulting in reversible or irreversible inhibition of proteaseome activity. […] Partial or complete recovery of proteasome activity over extended periods of time during dialysis is indicative of slow off-rate kinetics due to formation of a reversible covalent bond. For rapidly reversible compounds complete recovery of proteosome activity upon dialysis is expected to be observed.
A solution containing immunoproteasome was incubated with a compound of the disclosure (test compound) or (S)-4-methyl-N—((S)-1-(((S)-4-methyl-1-((R)-2-methyloxiran-2-yl)-1-oxopentan-2-yl)amino)-1-oxo-3-phenylpropan-2-yl)-2-((S)-2-(2-morpholino-acetamido)-4-phenylbutanamido)-pentanamide (reference compound), an irreversible covalent inhibitor of the immunoproteosome which targets the catalytic threonine of the immunoproreasome subunits (see Kuhn, D. J., et al. 2007. Potent activity of carfilzomib, a novel, irreversible inhibitor of the ubiquitin-proteasome pathway, against preclinical models of multiple myeloma. Blood, 110(9), 3281-3290). […] Following dialysis, enzymatic activity was measured using the Caliper-based proteasome activity assay (Caliper Life Sciences, Hopkinton, Mass). […]

[6] = system: multiple myeloma cell lines and primary patient tumor cells; conditions: including those resistant to conventional and novel prior therapies; cited from earlier work
[7] = system: human Th1/17 differentiation; conditions: cited from earlier work
[8] = system: mouse Th1/17 differentiation; conditions: cited from earlier work
[9] = system: B cell effector functions; conditions: cited from earlier work
[10] = system: proinflammatory cytokines (IL-6, TNF-α, IL-23); conditions: cited from earlier work
[11] = system: murine collagen-induced arthritis; conditions: including inflammation and bone erosion; cited from earlier work
MRL/lpr lupus model = conditions: cited from earlier work
[12] = system: murine DSS-induced colitis model; conditions: cited from earlier work
[13] = system: Hashimoto's thyroiditis model; conditions: autoantibody-driven model; cited from earlier work

Cc1ccc(CNC(=O)[C@H](COc2cccc(C=C(C#N)C(=O)NC(C)(C)C)c2)NC(=O)[C@@H](NC(=O)c2cc(C)on2)[C@@H](C)O)cc1 [Example 3]
IC50 [1]: 27 nM
IC50 [2]: 1030 nM
IC50 [3]: 1370 nM
IC50 [4]: 3 nM
IC50 ([5]; 30 minutes in culture, read-out: HT29 (30 min) IC50): > 5000 nM
IC50 ([5]; 4 hours in culture, read-out: HT29 (4 h) IC50): > 5000 nM
binding to the immunoproteosome (immunoproteasome (LMP7)): reversible

CC1=C(C(=O)N[C@H](C)C(=O)N[C@@H](Cc2c[nH]c3ccccc23)C(=O)N[C@@H](Cc2ccccc2)C(=O)[C@@]2(C)CO2)Cc2ccccc21 [PR-924]
growth of multiple myeloma cell lines and primary patient tumor cells [6]: inhibit growth

COc1ccc(C[C@H](NC(=O)[C@H](C)NC(=O)CN2CCOCC2)C(=O)N[C@@H](Cc2ccccc2)C(=O)[C@@]2(C)CO2)cc1 [PR-957]
human Th1/17 differentiation [7]: potently block
mouse Th1/17 differentiation [8]: potently block
B cell effector functions [9]: potently block
production of proinflammatory cytokines (IL-6, TNF-α, IL-23) [10]: potently block
disease activity in murine collagen-induced arthritis [11]: significantly inhibit disease activity
anti-dsDNA IgG levels (MRL/lpr lupus model): reduced
disease progression (MRL/lpr lupus model): prevented disease progression
plasma cell numbers (MRL/lpr lupus model): reduced
inflammation and tissue destruction [12]: reduced inflammation and tissue destruction
efficacy in Hashimoto's thyroiditis model [13]: efficacious
